Here are results for two compounds from patent publication US20240131098A1, “PHARMACEUTICAL COMPOSITION AND HEALTH FUNCTIONAL FOOD CONTAINING EXTRACT OF FRUITING BODY OF GANODERMA LUCIDUM AS ACTIVE INGREDIENT FOR PREVENTION OR TREATMENT OF THROMBOSIS” (Andong National University Industry-Academic Cooperation …, priority 2022, published 2024).

Data set [1] concerns the target T1, thrombin (Homo sapiens, UniProt P00734).
T1 construct: 50 μl of 0.5 U thrombin (Sigma Co., USA); purchased Sigma Co., USA
Briefly: Thrombin time (plasma coagulation, thrombin inhibitory activity). As to conditions: 1.5 mg/ml; coagulation time of sample added group / DMSO added group. In kind it is biochemical. As to the method:
(§1) The blood coagulation inhibitory activity of Ganoderma lucidum fruiting body samples was evaluated according to the previously reported methods (Sohn et al., 2004. Kor. J. Pharmacogn 35. 52-61; Kwon et al., 2004. J Life Science, 14. 509-513; Ryu et al. 2010. J. Life Science, 20. 922-928). For this, thrombin time, prothrombin time and aPT time were measured. For plasma, commercially available control plasma (MD Pacific Technology Co., Ltd, Huayuan Industrial Area, China) was used, and thrombin time, prothrombin time, and aPT time measurements were performed in a manner described below.
At 37° C., 50 μl of 0.5 U thrombin (Sigma Co., USA), 50 μl of 20 mM CaCl2, and 10 μl of sample extracts of various concentrations were mixed in the tube of Amelung coagulometer KC-1 A (Japan), and reacted for 2 minutes, followed by addition of 100 μl of plasma. After the addition of plasma, the time until plasma coagulation was measured. As a control, aspirin (Sigma Co., USA) was used, and as a solvent control, DMSO was used instead of the sample. […]
The thrombin inhibitory activity was expressed with the average of the results of three or more repeated experiments, and the thrombin inhibitory activity was expressed as the value obtained by dividing the coagulation time upon addition of the sample by the coagulation time upon addition of the solvent control. […]

In data set [2] the test system is prothrombin. In words: Prothrombin time (plasma coagulation, prothrombin inhibitory activity). In kind it is biochemical. The following applies: 1.5 mg/ml; coagulation time of sample added group / DMSO added group. As to the method: as §1
70 μl of standard plasma (MD Pacific Co., China) and 10 μl of sample solutions of various concentrations were added to the tube of Amelung coagulometer KC-1A (Japan) and warmed at 37° C. for 3 minutes, followed by addition of 130 μl of PT reagent. After the addition of the PT reagent, the time until coagulation was measured. The time was expressed with the average value of the results of three repeated experiments. As a control, aspirin (Sigma Co., USA) was used, and as a solvent control, DMSO was used instead of the sample. In the case of DMSO, the coagulation time was 18.1 seconds. The prothrombin inhibitory activity was expressed as the value obtained by dividing the coagulation time upon addition of the sample by the coagulation time of the solvent control. […]

Data set [3] deals with blood coagulation factor. Briefly: aPTT (activated partial thromboplastin time), blood coagulation factor inhibitory activity. As to conditions: 1.5 mg/ml; coagulation time of sample added group / DMSO added group. In kind it is biochemical. On the procedure: as §1
aPTT (Activated Partial Thromboplastin Time)
100 μl of plasma and 10 μl of sample extracts of various concentrations were added to the tube of Amelung coagulometer KC-1A (Japan) and warmed at 37° C. for 3 minutes. 50 μl of aPTT reagent (Sigma, ALEXIN™) was added thereto and incubated at 37° C. for 3 minutes. 50 μl of CaCl2 (35 mM) was added, and the time until plasma coagulation was measured. As a solvent control, DMSO was used instead of the sample, and in this case, the coagulation time was 55.1 seconds. The aPTT was expressed with the average of the results of three or more repeated experiments, and the blood coagulation factor inhibitory activity was expressed as the value obtained by dividing the aPTT upon addition of the same by the aPTT time upon addition of the solvent control. […]

Data set [4] deals with human erythrocytes. As to the method: The hemolytic activity was evaluated according to the previous report (Son Ho-yong, 2014. Korean J. Microbiol. Biotechnol. 42: 285-292). Briefly, 100 μl of human red blood cells washed three times with PBS were placed in a 96-well microplate, 100 μl of sample solution of various concentrations was added thereto, the reaction was performed at 37° C. for 30 minutes, and the reaction solution was centrifuged at 1,500 rpm for 10 minutes, 100 μl of the supernatant was transferred to a new microtiter plate, and the degree of hemoglobin leakage due to hemolysis was measured at 414 nm. DMSO (2%) was used as a solvent control for the sample, and Triton X-100 (1 mg/ml) was used as a control for red blood cell hemolysis. Hemolytic activity was calculated using the following formula:
(%)Hemolysis=[(Abs.S−Abs.C)/(Abs.T−Abs.C)]×100 • Abs.S: Absorbance of sample added group • Abs.C: Absorbance of DMSO added group • Abs.T: Absorbance of Triton X-100 added group

As to `CC(=O)Oc1ccccc1C(=O)O` [Aspirin, aspirin], the “Blood coagulation inhibitory activity, Thrombin time” value in data set [1] came to 1.45 ± 0.02. The “Blood coagulation inhibitory activity, Prothrombin time” value in data set [2] came out at 1.40 ± 0.00. Moreover, the “Blood coagulation inhibitory activity, aPT time” value in data set [3] is listed as 1.57 ± 0.11.

As to Triton X-100, in data set [4], the “Human erythrocyte coagulation activity(%)” value came to 0.4 ± 0.6%.
